Laboratory results as given in paper PMC9572546, “Discovery of Novel c-Jun N-Terminal Kinase 1 Inhibitors from Natural Products: Integrating Artificial Intelligence with Structure-Based Virtual Screening and Biological Evaluation” (Molecules, 2022).

Target: T1, c-Jun N-terminal kinase 1 (JNK1) (Homo sapiens, UniProt P45983)
T1 construct: gene MAPK8
Assay: LANCE Ultra TR-FRET kinase assay (PerkinElmer), 10-point two-fold dilution
Assay type: biochemical

T1 sequence (P45983 whole entry): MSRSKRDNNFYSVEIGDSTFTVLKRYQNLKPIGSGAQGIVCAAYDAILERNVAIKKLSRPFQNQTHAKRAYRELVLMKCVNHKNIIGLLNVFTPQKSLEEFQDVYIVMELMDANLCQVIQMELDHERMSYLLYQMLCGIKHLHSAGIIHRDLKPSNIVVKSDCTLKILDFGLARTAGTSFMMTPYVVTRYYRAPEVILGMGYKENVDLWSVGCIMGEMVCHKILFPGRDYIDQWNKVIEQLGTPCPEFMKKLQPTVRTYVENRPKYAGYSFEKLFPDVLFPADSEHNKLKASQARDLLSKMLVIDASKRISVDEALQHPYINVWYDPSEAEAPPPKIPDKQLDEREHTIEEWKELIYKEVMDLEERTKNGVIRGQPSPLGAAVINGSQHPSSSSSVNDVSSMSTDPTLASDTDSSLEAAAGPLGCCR

SMILES: COc1cc(-c2cc(=O)c3c(O)cc(O)cc3o2)cc(OC)c1O [Tricin]
- IC50: 17.7 µM
